Reference: patent US10131717B2, “Topically administered, skin-penetrating glycosaminoglycan formulations suitable for use in cosmetic and pharmaceutical applications” (London Health Sciences Centre Research Inc., priority 2010, dated 2018)

Experiments:
[1] = test system: senescent human fibroblasts; test: Percent of cells with hyaluronan coats and coat size in senescent human fibroblasts; assay type: cell-based; conditions: FIG. 2
Method: Modified hyaluronan (HA-PE-1), prepared according to Example 2, or hyaluronan alone (350 kDA; 10 mg/mL stock solution in saline) was added to senescent human fibroblasts in increasing concentrations (0-100 μg/mL).
The effect of the addition of modified hyaluronan (HA-PE-1; 50 μg/mL) vs. hyaluronan alone (50 μg/mL) on the cell coat area of the cells was quantified using image analysis (Elements 3.1, Nikon). […] Values are means and S.E.M. for 10 samples.

skin barrier = conditions: Kaya et al.; cited from earlier work
human dermal fibroblasts = test: Hyaluronan cell coats on cultured human dermal fibroblasts (fluorescent nanosphere exclusion); assay type: cell-based; conditions: hyaluronan 500 μg/mL (350 kDa) or HA-PE-1 25 μg/mL, 1 hour; compared to PBS control; FIG. 1
Method: The suitability of the present compositions was assessed by determining its ability to encase/surround cultured dermal fibroblasts grown from a punch biopsy of human skin. Punch biopsies were placed in a sterile tissue culture dish (35×10 mm, tissue culture dish) and cut with small (e.g., 19 G) sterile needles into small fragments. The fragments were allowed to dry briefly (e.g., no more than 10 minutes) to the bottom of the tissue culture dish to promote adherence of the tissue fragments. Dulbecco's modified Eagles Medium (DMEM), supplements with 10% fetal calf serum (FCS) was then gently added and the culture is then placed in a humidified 37° C. incubator supplemented with 5% CO2 for approximately one week. […]
In the images shown in FIG. 1, the hyaluronan cell coat is observed as a dark space since small fluorescent beads are excluded by the coat as denoted by the arrow within the image. Cells without coats […] are entirely covered by the fluorescent beads.

[2] = test system: female BL6 wild-type mice; test: Comparison of ability to penetrate the skin barrier of mice (hyaluronan staining; treated vs untreated area); assay type: in vivo, mouse
Source text: HA-PE-2, prepared as described in Example 3, hyaluronan mixed with, but not covalently linked to, lipids in the lecithins present in Example 3 (see Example 1), and hyaluronan alone (no additional phospholipid), were each formulated with a NIVEA Creme cosmetic base cream (1:1, v/v) as described in Example 4. The creams were then applied to the shaved backs (0.18 g HA-PE-2/application, 40×30 mm shaved area) of 9-month old female BL6 wild-type mice once daily for 4 days. After this time, one group of animals was euthanized and processed according to the procedure described in Example 9. A second group of animals were left without further treatment for an additional […] and euthanized/processed as described in Example 9 on day 7.
Since the amount of endogenous hyaluronan in skin can vary with location, internal controls were designed to evaluate hyaluronan staining of treated and control skin were developed to confirm the difference between the treated vs. untreated skin area. HA-PE-2 and control creams (hyaluronan only) were applied to the shaved backs of mice as previously described. Areas of treatment were marked (hair in the adjacent untreated margins was removed with Nair™ and the punch aligned to include the treated and untreated region; tissue punches were orientated in small tissue baskets to keep the tissue in the correct orientation throughout processing and marked with a histology marker pen) and tissue was harvested/processed as previously described (Example 9).

Question: Which “concentration at which the percentage of cells with coats reached a plateau” value ([1]; 0-100 μg/mL) does the source give for hyaluronan here?
Answer: 10 µg/mL

Question: What about the “percentage of cells that exhibited hyaluronan coats” value ([1]; increasing concentrations 0-100 μg/mL) of the same substance?
Answer: fewer cells with hyaluronan coats

Question: What about the “retention in skin of topically applied hyaluronan (literature)” value (skin barrier) of the same substance?
Answer: poorly retained in the epidermal layer

Question: And the “size of the hyaluronan coat (exclusion of fluorescent beads)” value (human dermal fibroblasts)?
Answer: little additional effect

Question: What about the “hyaluronan staining / hyaluronan penetrating the skin barrier” value ([2]; creams once daily for 4 days, p<0.000001, FIG. 9, 10) of the same substance?
Answer: negligible amounts of hyaluronan penetrating the skin barrier

Question: What about the “hyaluronan staining in keratinocytes following cessation of treatment” value ([2]; day 7, treatment stopped after day 4, FIG. 9, 10) of the same substance?
Answer: remained negligible

Question: And the “hyaluronan staining at the application edge, treated vs untreated area of skin” value ([2]; internal control, p<0.000001, FIG. 11, 12)?
Answer: a distinct margin of staining was not observed
